{
  "source": "patent US20230203098A1",
  "about": "“HUMAN TRANSFERRIN RECEPTOR BINDING PEPTIDE” (priority 2020, published 2023)",
  "biological_target": "transferrin receptor (hTfR) (Homo sapiens, UniProt P02786)",
  "sequence (P02786 whole entry)": "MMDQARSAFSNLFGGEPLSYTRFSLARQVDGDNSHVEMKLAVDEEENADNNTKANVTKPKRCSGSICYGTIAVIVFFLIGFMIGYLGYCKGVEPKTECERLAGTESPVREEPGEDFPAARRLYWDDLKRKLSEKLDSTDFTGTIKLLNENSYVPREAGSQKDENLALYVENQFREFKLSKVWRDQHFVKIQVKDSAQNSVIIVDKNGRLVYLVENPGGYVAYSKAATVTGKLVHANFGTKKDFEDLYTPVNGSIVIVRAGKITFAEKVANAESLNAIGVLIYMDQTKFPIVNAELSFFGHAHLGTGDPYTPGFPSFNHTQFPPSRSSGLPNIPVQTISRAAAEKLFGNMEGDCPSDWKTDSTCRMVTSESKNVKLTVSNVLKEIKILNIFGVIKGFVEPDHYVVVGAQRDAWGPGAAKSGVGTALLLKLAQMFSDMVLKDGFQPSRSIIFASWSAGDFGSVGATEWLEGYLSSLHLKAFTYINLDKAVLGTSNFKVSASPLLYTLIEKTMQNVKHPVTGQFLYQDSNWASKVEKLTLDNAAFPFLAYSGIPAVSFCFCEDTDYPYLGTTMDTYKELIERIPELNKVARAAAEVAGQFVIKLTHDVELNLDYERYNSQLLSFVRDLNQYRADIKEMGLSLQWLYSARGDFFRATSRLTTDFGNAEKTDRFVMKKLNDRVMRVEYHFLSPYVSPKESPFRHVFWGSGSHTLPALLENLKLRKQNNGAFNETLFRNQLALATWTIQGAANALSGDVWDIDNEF",
  "test": "Intermolecular interaction evaluation test between transferrin receptor (hTfR) and peptide by surface plasmon resonance (SPR)",
  "type": "binding",
  "details": "surface plasmon resonance, hTfR; read-out: KD value for hTfR by SPR (class symbol)",
  "outline": "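hTfR captured on Ni-NTA chip then amine-coupled; peptides run single-cycle kinetics at 5–100 nM in 10 mM HEPES pH 8.0, 150 mM NaCl, 0.05% Tween 20, 0.1% BSA, 1.0% DMSO. KD from least-squares curve fitting of sensorgrams.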",
  "note": "pKd: −log10 of the molar value. Where a SMILES comes first, the peptide text is derived from it. Bridges are numbered along the chain shown (N, C = ends). [ ]: non-standard residue; d: D form. NMePhe(3-Cl) = CN[C@@H](Cc1cccc(Cl)c1)C(=O)O; NMeW = CN[C@@H](Cc1c[nH]c2ccccc12)C(=O)O; NMeY = CN[C@@H](Cc1ccc(O)cc1)C(=O)O; PEG4 = NCCOCCOCCOCCOCCC(=O)O; Nle = CCCC[C@H](N)C(=O)O; Nva = CCC[C@H](N)C(=O)O; Abu = CC[C@H](N)C(=O)O",
  "data": [
    {"smiles": "CC[C@H](C)[C@@H]1NC(=O)[C@H](Cc2ccc(OC)cc2)NC(=O)[C@H](Cc2ccc(O)cc2)NC(=O)[C@H](CC(N)=O)NC(=O)[C@H](Cc2c[nH]c3ccccc23)N(C)C(=O)[C@H](C(C)C)NC(=O)[C@H](Cc2cccc(Cl)c2)N(C)C(=O)[C@H](C(C)C)NC(=O)[C@H](C)NC(=O)CSC[C@@H](C(=O)N[C@H](CCC(=O)O)C(N)=O)NC(=O)[C@H](Cc2ccc(O)cc2)N(C)C(=O)[C@H](Cc2ccccc2)NC(=O)[C@@H](CCCNC(=N)N)NC(=O)C(C)(C)NC(=O)[C@H]([C@@H](C)CC)NC1=O", "note": "[compound 355]", "values": [
      {"measurement": "pKd", "value": "6.00 to 7.00"}
    ]},
    {"smiles": "CC[C@H](C)[C@@H]1NC(=O)[C@H](Cc2ccc(OC)cc2)NC(=O)[C@H](Cc2ccc(O)cc2)NC(=O)[C@H](CC(N)=O)NC(=O)[C@H](Cc2c[nH]c3ccccc23)N(C)C(=O)[C@H](C(C)C)NC(=O)[C@H](Cc2cccc(Cl)c2)N(C)C(=O)[C@H](C(C)C)NC(=O)[C@H](C)NC(=O)CSC[C@@H](C(=O)N[C@H](CCC(=O)O)C(=O)N[C@H](CCC(=O)O)C(N)=O)NC(=O)[C@H](Cc2ccc(O)cc2)N(C)C(=O)[C@H](Cc2ccccc2)NC(=O)[C@@H](CCCNC(=N)N)NC(=O)C(C)(C)NC(=O)[C@H]([C@@H](C)CC)NC1=O", "note": "[compound 356]", "values": [
      {"measurement": "pKd", "value": "7.00 to 9.00"}
    ]},
    {"smiles": "CC[C@H](C)[C@@H]1NC(=O)[C@H](Cc2ccc(OC)cc2)NC(=O)[C@H](Cc2ccc(O)cc2)NC(=O)[C@H](CC(N)=O)NC(=O)[C@H](Cc2c[nH]c3ccccc23)N(C)C(=O)[C@H](C(C)C)NC(=O)[C@H](Cc2cccc(Cl)c2)N(C)C(=O)[C@H](C(C)C)NC(=O)[C@H](C)NC(=O)CSC[C@@H](C(=O)N[C@H](CCC(=O)O)C(=O)N(C)CC(=O)N[C@H](CCC(=O)O)C(N)=O)NC(=O)[C@H](Cc2ccc(O)cc2)N(C)C(=O)[C@H](Cc2ccccc2)NC(=O)[C@@H](CCCNC(=N)N)NC(=O)C(C)(C)NC(=O)[C@H]([C@@H](C)CC)NC1=O", "note": "[compound 357]", "values": [
      {"measurement": "pKd", "value": "7.00 to 9.00"}
    ]},
    {"smiles": "CC[C@@H]1NC(=O)[C@H]([C@@H](C)CC)NC(=O)[C@H]([C@@H](C)CC)NC(=O)[C@H](Cc2ccc(OC)cc2)NC(=O)[C@H](Cc2ccc(O)cc2)NC(=O)[C@H](CC(N)=O)NC(=O)[C@H](Cc2c[nH]c3ccccc23)N(C)C(=O)[C@H](C(C)C)NC(=O)[C@H](Cc2cccc(Cl)c2)N(C)C(=O)[C@H](C(C)C)NC(=O)[C@H](C)NC(=O)CSC[C@@H](C(=O)NCCOCCOCCOCCOCCC(N)=O)NC(=O)[C@H](Cc2ccc(O)cc2)N(C)C(=O)[C@H](Cc2ccccc2)NC(=O)[C@@H](CCCNC(=N)N)NC1=O", "note": "[compound 359] ({CH2CO}-AV[NMePhe(3-Cl)]V[NMeW]NYY(Me)II[Abu][dR]F[NMeY]C[PEG4]-NH2; thioether N-15)", "values": [
      {"measurement": "pKd", "value": "7.00 to 9.00"}
    ]},
    {"smiles": "CCC[C@@H]1NC(=O)[C@H]([C@@H](C)CC)NC(=O)[C@H]([C@@H](C)CC)NC(=O)[C@H](Cc2ccc(OC)cc2)NC(=O)[C@H](Cc2ccc(O)cc2)NC(=O)[C@H](CC(N)=O)NC(=O)[C@H](Cc2c[nH]c3ccccc23)N(C)C(=O)[C@H](C(C)C)NC(=O)[C@H](Cc2cccc(Cl)c2)N(C)C(=O)[C@H](C(C)C)NC(=O)[C@H](C)NC(=O)CSC[C@@H](C(=O)NCCOCCOCCOCCOCCC(N)=O)NC(=O)[C@H](Cc2ccc(O)cc2)N(C)C(=O)[C@H](Cc2ccccc2)NC(=O)[C@@H](CCCNC(=N)N)NC1=O", "note": "[compound 360] ({CH2CO}-AV[NMePhe(3-Cl)]V[NMeW]NYY(Me)II[Nva][dR]F[NMeY]C[PEG4]-NH2; thioether N-15)", "values": [
      {"measurement": "pKd", "value": "7.00 to 9.00"}
    ]},
    {"smiles": "CCCC[C@@H]1NC(=O)[C@H]([C@@H](C)CC)NC(=O)[C@H]([C@@H](C)CC)NC(=O)[C@H](Cc2ccc(OC)cc2)NC(=O)[C@H](Cc2ccc(O)cc2)NC(=O)[C@H](CC(N)=O)NC(=O)[C@H](Cc2c[nH]c3ccccc23)N(C)C(=O)[C@H](C(C)C)NC(=O)[C@H](Cc2cccc(Cl)c2)N(C)C(=O)[C@H](C(C)C)NC(=O)[C@H](C)NC(=O)CSC[C@@H](C(=O)NCCOCCOCCOCCOCCC(N)=O)NC(=O)[C@H](Cc2ccc(O)cc2)N(C)C(=O)[C@H](Cc2ccccc2)NC(=O)[C@@H](CCCNC(=N)N)NC1=O", "note": "[compound 361] ({CH2CO}-AV[NMePhe(3-Cl)]V[NMeW]NYY(Me)II[Nle][dR]F[NMeY]C[PEG4]-NH2; thioether N-15)", "values": [
      {"measurement": "pKd", "value": "7.00 to 9.00"}
    ]}
  ]
}
